Several values for one entry are separate records, joined by “and”; a condition that tells them apart may be missing. Equal entries are not always repeated. Where two headings read alike, the source gives them in different places.
Key:
[1] = test system: C6^7G8 parasites; experiment: P. falciparum proliferation assay; type: cell-based, Plasmodium falciparum
Description: (§1) Parasite proliferation was measured in 96-well plates using a fluorescent DNA-intercalating dye[68],[69]. Synchronous ring-stage parasite cultures (~1% haematocrit and 1% parasitaemia) were incubated with different concentrations of the test compound for 72 h at 37 °C and under reduced O2 conditions. The assay was terminated by freezing and thawing the samples, after which 100 μL of SYBR Safe DNA Gel Stain (Molecular Probes; 0.2 μL/mL) in a lysis buffer (20 mM Tris-HCl, 5 mM EDTA, 0.008% (w/v) saponin and 0.08% (v/v) Triton X-100; pH 7.5) was added to each well. The fluorescence from each well was measured using a Tecan Infinite M1000 PRO microplate reader (excitation wavelength 490 nm; emission wavelength 520 nm). The fluorescence values for the wells containing the highest concentration of the compound were averaged and this value was then subtracted from each of the well values obtained for that 96-well plate. The level of parasite proliferation in the presence of each compound concentration was expressed as a percentage of the proliferation measured in the absence of the compound. The IC50s were determined in SigmaPlot Windows Version 11.0 by a least-squares fit of the equation y = a/[1 + ([compound]/IC50)^c] to the data, where y is the percent parasite proliferation, a is the maximum change in the percent parasite proliferation, and c is a fitted constant. In all cases, five independent experiments were performed (on different days), and within each experiment measurements were averaged from three replicates.

[2] = test system: C4^Dd2 parasites; experiment: P. falciparum proliferation assay; type: cell-based, Plasmodium falciparum
Description: as §1

[3] = test system: 3D7 strain; experiment: P. falciparum proliferation assay; type: cell-based, Plasmodium falciparum
Description: as §1

[4] = test system: 7G8 strain; experiment: P. falciparum proliferation assay; type: cell-based, Plasmodium falciparum
Description: as §1

[5] = test system: C2^GC03 parasites; experiment: P. falciparum proliferation assay; type: cell-based; settings: Plasmodium falciparum
Description: as §1

[6] = test system: Dd2 strain; experiment: P. falciparum proliferation assay; type: cell-based, Plasmodium falciparum
Description: as §1

[7] = test system: non-expressing oocytes; type: cell-based, Xenopus laevis
Description: (§2) Measurements of the cis-inhibition of [^3H]CQ transport via PfCRT^Dd2 or PfCRT^Ecu1110 by a test solute (data presented in Fig. 1 and Supplementary Data 1,2) were performed on oocytes three days post-cRNA-injection[15],[21]. Ten oocytes were washed twice with the relevant ND96 buffer. The assay commenced with the addition of ND96 buffer supplemented with 0.25 μM [^3H]CQ, 15 μM unlabelled CQ, and the unlabelled solute under study (at a concentration specified in the figure legends and Supplementary Data 1, 2). The assay was terminated by removing the reaction buffer and washing the oocytes with ice-cold ND96 buffer. The oocytes were lysed in 10% (w/v) sodium dodecyl sulfate (SDS) and the radioactivity accumulated within each oocyte was measured with a MicroBeta^2 microplate liquid scintillation analyser (PerkinElmer).
(§3) Measurements of the uptake or efflux of a number of other radiolabelled compounds (Fig. 3k; Supplementary Fig. 3) were performed using the methods described above for [^3H]CQ and [^3H]VF-6, respectively.

[8] = target: T1, PfNT1 (Plasmodium falciparum, UniProt Q8IDM6); type: cell-based
T1 construct: expressed in transfected cells; host or cells: Xenopus laevis oocytes (stage V-VI), cRNA-injected
Description: as §2, §3

[9] = Plasmodium falciparum, C67G8, 72 h, 37 °C, SYBR Safe, mean ± SEM, n = 5, read-out: IC50 (μM), parasite proliferation, Control
[10] = read-out: IC50 (μM), parasite proliferation, + 1 μM VP, C67G8, + 1 μM verapamil, 72 h, mean ± SEM, n = 5
[11] = Plasmodium falciparum, DD2, C4Dd2, 72 h, 37 °C, SYBR Safe, mean ± SEM, n = 5, read-out: IC50 (μM), parasite proliferation, Control
[12] = Plasmodium falciparum, 3D7, 72 h, 37 °C, SYBR Safe, mean ± SEM, n = 5, read-out: IC50 (μM), parasite proliferation, Control
[13] = read-out: IC50 (μM), parasite proliferation, + 1 μM VP, SEM
[14] = Plasmodium falciparum, 72 h, read-out: IC50 (μM), parasite proliferation, Control, SEM
[15] = read-out: IC50 (μM), parasite proliferation, + 1 μM VP, 7G8, + 1 μM verapamil, 72 h, mean ± SEM, n = 5
[16] = 72 h, read-out: IC50 (μM), parasite proliferation, + 1 μM VP, SEM
[17] = C2GC03, 72 h, 37 °C, SYBR Safe, mean ± SEM, n = 5, read-out: IC50 (μM), parasite proliferation, Control

T1 sequence (Q8IDM6 whole entry): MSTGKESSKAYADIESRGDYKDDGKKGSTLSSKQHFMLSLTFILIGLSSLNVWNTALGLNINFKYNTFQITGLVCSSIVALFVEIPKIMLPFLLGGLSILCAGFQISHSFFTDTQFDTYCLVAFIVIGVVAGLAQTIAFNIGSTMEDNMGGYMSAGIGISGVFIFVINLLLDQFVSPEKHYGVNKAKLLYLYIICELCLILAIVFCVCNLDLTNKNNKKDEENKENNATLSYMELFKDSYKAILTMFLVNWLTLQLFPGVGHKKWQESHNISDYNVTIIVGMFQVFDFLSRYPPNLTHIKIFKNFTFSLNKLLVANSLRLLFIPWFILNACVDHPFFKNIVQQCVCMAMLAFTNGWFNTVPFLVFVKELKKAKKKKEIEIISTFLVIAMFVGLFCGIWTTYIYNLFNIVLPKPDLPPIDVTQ

| Compound | IC50 [1, 9] [µM] | IC50 [1, 10] [µM] | IC50 [2, 11] [µM] | IC50 [3, 12] [µM] | IC50 [3, 13] [µM] | IC50 [4, 14] [µM] | IC50 [4, 15] [µM] | IC50 [5, 16] [µM] | IC50 [5, 17] [µM] | IC50 ([6]; Plasmodium falciparum, DD2, 72 h, read-out: IC50 (μM), parasite proliferation, Control, SEM) [µM] | IC50 ([6]; read-out: IC50 (μM), parasite proliferation, + 1 μM VP, Dd2, + 1 μM verapamil, 72 h, mean ± SEM, n = 5) [µM] | IC50 ([2]; read-out: IC50 (μM), parasite proliferation, + 1 μM VP, C4Dd2, + 1 μM verapamil, 72 h, mean ± SEM, n = 5) [µM] | [3H]hypoxanthine transport into the oocyte, non-expressing oocytes [7] | [3H]hypoxanthine transport into the oocyte, PfNT1 [8] [% PfNT1] |
| --- | --- | --- | --- | --- | --- | --- | --- | --- | --- | --- | --- | --- | --- | --- |
| CC(C)(C)NC(=O)[C@@H]1CN(Cc2cccnc2)CCN1C[C@@H](O)C[C@@H](Cc1ccccc1)C(=O)N[C@H]1c2ccccc2C[C@H]1O [Indinavir, indinavir] | 1.1 ± 0.05 | 0.4 ± 0.02 | 2.2 ± 0.1 | 4.1 ± 0.1 | 2.1 ± 0.8 | 2.5 ± 0.2 | 0.5 ± 0.06 | 1.2 ± 0.8 | 4.2 ± 0.2 |  |  |  |  |  |
| Cc1c(O)cccc1C(=O)N[C@@H](CSc1ccccc1)[C@H](O)CN1C[C@H]2CCCC[C@H]2C[C@H]1C(=O)NC(C)(C)C [Nelfinavir, nelfinavir] | 6.2 ± 0.3 | 1.4 ± 0.1 | 4.1 ± 0.1 | 15.3 ± 1.2 | 5.6 ± 0.8 | 7.3 ± 0.6 | 3.1 ± 0.3 | 4.6 ± 0.3 | 13.1 ± 0.8 | 5.7 ± 0.5 | 0.5 ± 0.02 | 0.7 ± 0.03 |  |  |
| O=c1[nH]cnc2nc[nH]c12 [[3H]hypoxanthine] |  |  |  |  |  |  |  |  |  |  |  |  | 12.63 % PfNT1 and 13.63 % PfNT1 and 15.33 % PfNT1 and 10.43 % PfNT1 and 11.43 % PfNT1 | 100 |
